# PubChem BioAssay AID1963841 (Molecular Pharmacology Branch, DTP, NCI, 2024)
# System: 439559-082-T-J2-PDC spheroid viability
# Test: Anticancer human tumor 439559-082-T-J2-PDC patient-derived colon adenocarcinoma cell line growth inhibition [POLQ]
# Details: spheroids with HUVEC and MSC; for IC50: curve of first compound; for viability, T/C: stronger effect = lower value
# Summary of the method: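 Growth inhibition in 3D: complex spheroids (tumor PDC, HUVEC, MSC) treated with POLQ inhibitor combinations; where Cmax unknown, highest tested concentration 10 microM, except SN-38 at 1 microM.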
# [1] = second compound 0.0316 µM, first compound 0.0316 µM
# [2] = second compound 0.0316 µM, first compound 0.1 µM
# [3] = second compound 0.0316 µM, first compound 0.316 µM
# [4] = second compound 0.0316 µM, first compound 1 µM
# [5] = second compound 0.0316 µM, first compound 3.16 µM
# [6] = second compound 0.0316 µM, first compound 10 µM
# [7] = second compound 0.1 µM, first compound 0.0316 µM
# [8] = second compound 0.1 µM, first compound 0.1 µM
# [9] = second compound 0.1 µM, first compound 0.316 µM
# [10] = second compound 0.1 µM, first compound 1 µM
# [11] = second compound 0.1 µM, first compound 3.16 µM
# [12] = second compound 0.1 µM, first compound 10 µM
# [13] = second compound 0.316 µM, first compound 0.0316 µM
# [14] = second compound 0.316 µM, first compound 0.1 µM
# [15] = second compound 0.316 µM, first compound 0.316 µM
# [16] = second compound 0.316 µM, first compound 1 µM
# [17] = second compound 0.316 µM, first compound 3.16 µM
# [18] = second compound 0.316 µM, first compound 10 µM
# [19] = second compound 1 µM, first compound 0.0316 µM
# [20] = second compound 1 µM, first compound 0.1 µM
# [21] = second compound 1 µM, first compound 0.316 µM
# [22] = second compound 1 µM, first compound 1 µM
# [23] = second compound 1 µM, first compound 3.16 µM
# [24] = second compound 1 µM, first compound 10 µM
# [25] = second compound 3.16 µM, first compound 0.0316 µM
# [26] = second compound 3.16 µM, first compound 0.1 µM
# [27] = second compound 3.16 µM, first compound 0.316 µM
# [28] = second compound 3.16 µM, first compound 1 µM
# [29] = second compound 3.16 µM, first compound 3.16 µM
# [30] = second compound 3.16 µM, first compound 10 µM
# [31] = second compound 10 µM, first compound 0.0316 µM
# [32] = second compound 10 µM, first compound 0.1 µM
# [33] = second compound 10 µM, first compound 0.316 µM
# [34] = second compound 10 µM, first compound 1 µM
# [35] = second compound 10 µM, first compound 3.16 µM
# [36] = second compound 10 µM, first compound 10 µM
# 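Also: spheroids exposed to compounds for seven days before readout.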
# 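For viability, T/C in this document: 100% = DMSO vehicle control viability.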
smiles,measurement,setting,value
CC1COCCN1c1cc(-c2ccnn2C)c2ccnc(-c3ccn[nH]3)c2n1 (centres undefined) + COC1C(OC(N)=O)C(O)C(Oc2ccc3c(O)c(NC(=O)c4ccc(O)c(CC=C(C)C)c4)c(=O)oc3c2C)OC1(C)C,IC50,second compound 0.0316 µM,257 nM
same,IC50,second compound 0.1 µM,299 nM
same,IC50,second compound 0.316 µM,353 nM
same,IC50,second compound 1 µM,274 nM
same,IC50,second compound 3.16 µM,276 nM
same,IC50,second compound 10 µM,298 nM
same,"viability, T/C",[1],85.6%
same,"viability, T/C",[2],66.5%
same,"viability, T/C",[3],44.7%
same,"viability, T/C",[4],42%
same,"viability, T/C",[5],23.3%
same,"viability, T/C",[6],37%
same,"viability, T/C",[7],82.8%
same,"viability, T/C",[8],75.4%
same,"viability, T/C",[9],47.4%
same,"viability, T/C",[10],41.3%
same,"viability, T/C",[11],27%
same,"viability, T/C",[12],38.9%
same,"viability, T/C",[13],92.5%
same,"viability, T/C",[14],77.4%
same,"viability, T/C",[15],49.5%
same,"viability, T/C",[16],43.1%
same,"viability, T/C",[17],25.2%
same,"viability, T/C",[18],39.4%
same,"viability, T/C",[19],92.1%
same,"viability, T/C",[20],75.2%
same,"viability, T/C",[21],44.9%
same,"viability, T/C",[22],41.9%
same,"viability, T/C",[23],24.2%
same,"viability, T/C",[24],39.7%
same,"viability, T/C",[25],94.3%
same,"viability, T/C",[26],72.1%
same,"viability, T/C",[27],45.1%
same,"viability, T/C",[28],42.4%
same,"viability, T/C",[29],25.2%
same,"viability, T/C",[30],37.7%
same,"viability, T/C",[31],88%
same,"viability, T/C",[32],78.5%
same,"viability, T/C",[33],46.4%
same,"viability, T/C",[34],42.9%
same,"viability, T/C",[35],25.4%
same,"viability, T/C",[36],37.2%
CC1COCCN1c1cc(C2(S(C)(=N)=O)CC2)nc(-c2ccnc3[nH]ccc23)n1 (centres undefined) + COC1C(OC(N)=O)C(O)C(Oc2ccc3c(O)c(NC(=O)c4ccc(O)c(CC=C(C)C)c4)c(=O)oc3c2C)OC1(C)C,IC50,second compound 0.0316 µM,> 10000 nM
same,IC50,second compound 0.1 µM,> 10000 nM
same,IC50,second compound 0.316 µM,> 10000 nM
same,IC50,second compound 1 µM,> 10000 nM
same,IC50,second compound 3.16 µM,> 10000 nM
same,IC50,second compound 10 µM,> 10000 nM
same,"viability, T/C",[1],97.4%
same,"viability, T/C",[2],98.2%
same,"viability, T/C",[3],94%
same,"viability, T/C",[4],101%
same,"viability, T/C",[5],89.8%
same,"viability, T/C",[6],65.8%
same,"viability, T/C",[7],100%
same,"viability, T/C",[8],101%
same,"viability, T/C",[9],105%
same,"viability, T/C",[10],92.6%
same,"viability, T/C",[11],89.7%
same,"viability, T/C",[12],66.4%
same,"viability, T/C",[13],101%
same,"viability, T/C",[14],91.2%
same,"viability, T/C",[15],93.5%
same,"viability, T/C",[16],94.8%
same,"viability, T/C",[17],90.2%
same,"viability, T/C",[18],67%
same,"viability, T/C",[19],95%
same,"viability, T/C",[20],99.3%
same,"viability, T/C",[21],91.7%
same,"viability, T/C",[22],86.6%
same,"viability, T/C",[23],88.8%
same,"viability, T/C",[24],66.8%
same,"viability, T/C",[25],94.7%
same,"viability, T/C",[26],96.7%
same,"viability, T/C",[27],89.7%
same,"viability, T/C",[28],90.8%
same,"viability, T/C",[29],87.2%
same,"viability, T/C",[30],64%
same,"viability, T/C",[31],99.7%
same,"viability, T/C",[32],97.4%
same,"viability, T/C",[33],103%
same,"viability, T/C",[34],89.4%
same,"viability, T/C",[35],86.1%
same,"viability, T/C",[36],63.9%
